Conditions: Fluid (supercritical or subcritical phases), Coaxial cylinder method

CCCCCC [hexane]
Conditions | thermal conductivity [W/m/K]
513.09 K, 8500 kPa | 0.07722
513.09 K, 8790 kPa | 0.07758
513.09 K, 8830 kPa | 0.07762
513.09 K, 8882 kPa | 0.07769
513.09 K, 9275 kPa | 0.07816
513.09 K, 9297 kPa | 0.07816
513.09 K, 9300 kPa | 0.07816
513.09 K, 9344 kPa | 0.0782
513.09 K, 9367 kPa | 0.07824
513.09 K, 9700 kPa | 0.07864
513.09 K, 9900 kPa | 0.07883
513.09 K, 10000 kPa | 0.07894
515.56 K, 676 kPa | 0.03834
515.56 K, 700 kPa | 0.03843
515.56 K, 900 kPa | 0.03853
515.56 K, 1220 kPa | 0.039
515.56 K, 1221 kPa | 0.039
515.56 K, 1672 kPa | 0.04008
515.56 K, 1786 kPa | 0.04038
515.56 K, 1822 kPa | 0.04059
515.56 K, 2209 kPa | 0.0423
515.56 K, 2287 kPa | 0.04275
515.56 K, 2404 kPa | 0.04344
515.56 K, 2503 kPa | 0.04392
515.56 K, 2607 kPa | 0.04465
515.56 K, 2688 kPa | 0.04553
515.56 K, 2751 kPa | 0.04606
515.56 K, 2811 kPa | 0.04699
515.56 K, 2856 kPa | 0.04713
515.56 K, 2919 kPa | 0.04712
515.56 K, 2953 kPa | 0.04782
515.56 K, 2989 kPa | 0.04928
515.56 K, 3019 kPa | 0.05004
515.56 K, 3062 kPa | 0.05082
515.56 K, 3072 kPa | 0.05082
515.56 K, 3083 kPa | 0.05163
515.56 K, 3103 kPa | 0.05247
515.56 K, 3114 kPa | 0.05247
515.56 K, 3122 kPa | 0.05247
515.56 K, 3140 kPa | 0.05247
515.56 K, 3153 kPa | 0.05333
515.56 K, 3164 kPa | 0.05333
515.56 K, 3174 kPa | 0.05422
515.56 K, 3180 kPa | 0.05422
515.56 K, 3193 kPa | 0.05609
515.56 K, 3201 kPa | 0.05609
515.56 K, 3209 kPa | 0.05609
515.56 K, 3220 kPa | 0.05609
515.56 K, 3230 kPa | 0.05808
515.56 K, 3235 kPa | 0.05808
515.56 K, 3243 kPa | 0.05808
515.56 K, 3249 kPa | 0.05808
515.56 K, 3257 kPa | 0.06022
515.56 K, 3265 kPa | 0.06022
515.56 K, 3270 kPa | 0.06022
515.56 K, 3275 kPa | 0.06022
515.56 K, 3283 kPa | 0.06205
515.56 K, 3293 kPa | 0.06205
515.56 K, 3301 kPa | 0.06374
515.56 K, 3309 kPa | 0.06474
515.56 K, 3316 kPa | 0.065
515.56 K, 3322 kPa | 0.06539
515.56 K, 3329 kPa | 0.06578
515.56 K, 3334 kPa | 0.06604
515.56 K, 3339 kPa | 0.06631
515.56 K, 3342 kPa | 0.06658
515.56 K, 3347 kPa | 0.06685
515.56 K, 3350 kPa | 0.06698
515.56 K, 3352 kPa | 0.06712
515.56 K, 3357 kPa | 0.06737
515.56 K, 3360 kPa | 0.06751
515.56 K, 3362 kPa | 0.06759
515.56 K, 3368 kPa | 0.06795
515.56 K, 3373 kPa | 0.06823
515.56 K, 3386 kPa | 0.06866
515.56 K, 3394 kPa | 0.06909
515.56 K, 3426 kPa | 0.06997
515.56 K, 3453 kPa | 0.06911
515.56 K, 3462 kPa | 0.06911
515.56 K, 3482 kPa | 0.06911
515.56 K, 3490 kPa | 0.06911
515.56 K, 3499 kPa | 0.06911
515.56 K, 3520 kPa | 0.06911
515.56 K, 3541 kPa | 0.06911
515.56 K, 3550 kPa | 0.06911
515.56 K, 3566 kPa | 0.06911
515.56 K, 3579 kPa | 0.06769
515.56 K, 3614 kPa | 0.06769
515.56 K, 3638 kPa | 0.06769
515.56 K, 3682 kPa | 0.06769
515.56 K, 3700 kPa | 0.06769
515.56 K, 3750 kPa | 0.06938
515.56 K, 3800 kPa | 0.06938
515.56 K, 3841 kPa | 0.06944
515.56 K, 3900 kPa | 0.0695
515.56 K, 3928 kPa | 0.06953
515.56 K, 3941 kPa | 0.06959
515.56 K, 3995 kPa | 0.06965
515.56 K, 4000 kPa | 0.06968
515.56 K, 4025 kPa | 0.06968
515.56 K, 4104 kPa | 0.06983
515.56 K, 4200 kPa | 0.07004
515.56 K, 4307 kPa | 0.07016
515.56 K, 4388 kPa | 0.07034
515.56 K, 4400 kPa | 0.0704
515.56 K, 4488 kPa | 0.07058
515.56 K, 4537 kPa | 0.07067
515.56 K, 4593 kPa | 0.0708
515.56 K, 4620 kPa | 0.07089
515.56 K, 4700 kPa | 0.07098
515.56 K, 4790 kPa | 0.07114
515.56 K, 4800 kPa | 0.07117
515.56 K, 4830 kPa | 0.07123
515.56 K, 4900 kPa | 0.07129
515.56 K, 5000 kPa | 0.07151
515.56 K, 5100 kPa | 0.07167
515.56 K, 5130 kPa | 0.0717
515.56 K, 5200 kPa | 0.07182
515.56 K, 5300 kPa | 0.07198
515.56 K, 5400 kPa | 0.07217
515.56 K, 5580 kPa | 0.07243
515.56 K, 5600 kPa | 0.07246
515.56 K, 5690 kPa | 0.07265
515.56 K, 5740 kPa | 0.07275
515.56 K, 5800 kPa | 0.07285
515.56 K, 5900 kPa | 0.07301
515.56 K, 6050 kPa | 0.07327
515.56 K, 6060 kPa | 0.07327
515.56 K, 6080 kPa | 0.0733
515.56 K, 6300 kPa | 0.07366
515.56 K, 6380 kPa | 0.0738
515.56 K, 6460 kPa | 0.07393
515.56 K, 6610 kPa | 0.07417
515.56 K, 6920 kPa | 0.07464
515.56 K, 6950 kPa | 0.07468
515.56 K, 7020 kPa | 0.07478
515.56 K, 7100 kPa | 0.07488
515.56 K, 7470 kPa | 0.0754
515.56 K, 7560 kPa | 0.07554
515.56 K, 7570 kPa | 0.07557
515.56 K, 7600 kPa | 0.0756
515.56 K, 7840 kPa | 0.07592
515.56 K, 7870 kPa | 0.07595
515.56 K, 7940 kPa | 0.07602
515.56 K, 8050 kPa | 0.07617
515.56 K, 8100 kPa | 0.0762
515.56 K, 8140 kPa | 0.07624
515.56 K, 8230 kPa | 0.07638
515.56 K, 8370 kPa | 0.07656
515.56 K, 8470 kPa | 0.07663
515.56 K, 8540 kPa | 0.0767
515.56 K, 8730 kPa | 0.07695
515.56 K, 8870 kPa | 0.07714
515.56 K, 9080 kPa | 0.07739
515.56 K, 9100 kPa | 0.07739
525.42 K, 1000 kPa | 0.0403
525.42 K, 1500 kPa | 0.0416
525.42 K, 1975 kPa | 0.04209
525.42 K, 1984 kPa | 0.04209
525.42 K, 2100 kPa | 0.04213
525.42 K, 2200 kPa | 0.04213
525.42 K, 2300 kPa | 0.04213
525.42 K, 2404 kPa | 0.04213
525.42 K, 2423 kPa | 0.04213
525.42 K, 2425 kPa | 0.04213
